Source: ChEMBL document CHEMBL1629430, “2'-deoxy-2'-α-fluoro-2'-β-C-methyl 3',5'-cyclic phosphate nucleotide prodrug analogs as inhibitors of HCV NS5B polymerase: discovery of PSI-352938” (Bioorg Med Chem Lett, 2010)
One block for each compound: values may come before it.

Legend:
[1] = Cytotoxicity against human HepG2 cells; assay type: cell-based
Hepatitis C virus [2] = assay: Antiviral activity against Hepatitis C virus -infected in human HuH7 cells; assay type: functional, Hepacivirus hominis, Huh-7
[3] = Half life in human liver S9 fraction; assay type: ADME, subcellular; conditions: read-out: Stability (converted)
Hepatitis C virus [4] = assay: Antiviral activity against Hepatitis C virus harboring NS5B S282T mutant -infected in human HuH7 cells; assay type: functional, Hepacivirus hominis, Huh-7
[5] = Half life in human plasma; assay type: ADME, cell-free; conditions: read-out: Stability (converted)
[6] = Half life of the compound in simulated intestinal fluid; assay type: physicochemical; conditions: for half-life: simulated intestinal fluid, read-out: Stability
Hepatitis C virus [7] = assay: Antiviral activity against wild-type Hepatitis C virus -infected in human HuH7 cells; assay type: functional, Hepacivirus hominis, Huh-7
[8] = Cytotoxicity against human CEM cells; assay type: cell-based; conditions: CEM cells (CCRF-CEM)
[9] = Half life of the compound in simulated gastrointestinal fluid; assay type: physicochemical; conditions: read-out: Stability (converted)
[10] = Cytotoxicity against human HuH7 cells; assay type: cell-based, Huh-7
[11] = Cytotoxicity against human BxPC3 cells; assay type: cell-based, BXPC-3
[12] = Mitochondrial toxicity in human HepG2 cells; assay type: cell-based
[13] = Mitochondrial toxicity in human CEM cells; assay type: cell-based; conditions: CEM cells (CCRF-CEM)
[14] = biological target: RNA-directed RNA polymerase (Hepacivirus hominis, UniProt O39930); assay: Inhibition of HCV NS5B polymerase
Liver = assay: AUC (0 to 24 hrs) in rat liver; assay type: ADME, tissue-based; parameters: time < 24 hr; conditions: in vivo
Hepatocyte = assay: Drug level in human hepatocytes assessed as cellular triphosphate level at 100 uM after 72 hrs by HPLC method; assay type: ADME, cell-based
Rattus norvegicus [15] = assay: AUC (0 to 24 hrs) in rat liver assessed as 2'-Deoxy-2'-alpha-F-2'-beta-C-methyl guanosine triphosphate level at 50 mg/kg, po; assay type: ADME, organism-based; parameters: time < 24 hr, dose 50 mg/kg, route oral; conditions: in vivo
[16] = Drug level in Hepatitis C virus -infected human HuH7 cells assessed as cellular triphosphate level at 100 uM after 72 hrs by HPLC method; assay type: ADME, cell-based; conditions: huh-7, 72 h
Rattus norvegicus [17] = assay: Cmax in rat liver assessed as 2'-Deoxy-2'-alpha-F-2'-beta-C-methyl guanosine triphosphate level at 50 mg/kg, po; assay type: ADME, organism-based; parameters: dose 50 mg/kg, route oral; conditions: in vivo

Sequence of RNA-directed RNA polymerase (O39930 whole entry): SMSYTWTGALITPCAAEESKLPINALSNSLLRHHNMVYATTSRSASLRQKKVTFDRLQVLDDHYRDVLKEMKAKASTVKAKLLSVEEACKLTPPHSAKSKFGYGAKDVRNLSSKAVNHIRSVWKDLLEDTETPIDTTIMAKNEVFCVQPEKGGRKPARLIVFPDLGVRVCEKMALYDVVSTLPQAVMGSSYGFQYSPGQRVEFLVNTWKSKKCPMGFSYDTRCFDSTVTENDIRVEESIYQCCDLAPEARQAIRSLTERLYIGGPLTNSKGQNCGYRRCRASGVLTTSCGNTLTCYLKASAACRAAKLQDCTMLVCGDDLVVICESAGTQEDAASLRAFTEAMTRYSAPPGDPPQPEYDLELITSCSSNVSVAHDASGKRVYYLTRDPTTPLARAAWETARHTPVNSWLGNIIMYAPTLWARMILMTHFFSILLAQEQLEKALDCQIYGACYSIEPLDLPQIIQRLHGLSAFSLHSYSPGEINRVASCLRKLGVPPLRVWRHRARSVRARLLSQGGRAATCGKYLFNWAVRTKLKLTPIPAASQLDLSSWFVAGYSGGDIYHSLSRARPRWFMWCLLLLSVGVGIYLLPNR

Compound: COP1(=O)OC[C@H]2O[C@@H](n3cnc4c(N5CCC5)nc(N)nc43)[C@](C)(F)[C@@H]2O1 (stereo partly drawn)
CC50 [1]: > 100 µM
EC90 (Hepatitis C virus [2]; Hepatitis C virus, Huh-7): 0.98 µM
half-life [3]: 2.53 h
EC90 (Hepatitis C virus [4]; Hepatitis C virus, Huh-7): 1.53 µM
half-life [5]: 8.33 h
half-life [6]: > 20 h
EC90 (Hepatitis C virus [7]; Hepatitis C virus, Huh-7): 0.98 µM
CC50 [8]: > 100 µM
half-life [9]: > 20 h
CC50 [10]: > 30 µM
CC50 [11]: > 100 µM
CC50 [12]: > 100 µM
CC50 [13]: > 100 µM

Compound: CCCCNc1nc(N)nc2c1ncn2[C@@H]1O[C@@H]2COP(=O)(Oc3ccccc3)O[C@H]2[C@@]1(C)F (single isomer, unassigned)
EC90 (Hepatitis C virus [2]; Hepatitis C virus, Huh-7): 4.76 µM

Compound: CCCOc1nc(N)nc2c1ncn2[C@@H]1O[C@@H]2COP(=O)(OC)O[C@H]2[C@@]1(C)F (stereo partly drawn)
EC90 (Hepatitis C virus [2]; Hepatitis C virus, Huh-7): 0.83 µM
CC50 [10]: > 30 µM

Compound: CO[P@@]1(=O)OC[C@H]2O[C@@H](n3cnc4c(O)nc(N)nc43)[C@](C)(F)[C@@H]2O1
EC90 (Hepatitis C virus [2]; Hepatitis C virus, Huh-7): 11.8 µM
CC50 [10]: > 65 µM

Compound: CCCNc1nc(N)nc2c1ncn2[C@@H]1O[C@@H]2COP(=O)(OC)O[C@H]2[C@@]1(C)F (stereo partly drawn)
CC50 [1]: > 100 µM
EC90 (Hepatitis C virus [2]; Hepatitis C virus, Huh-7): 0.92 µM
half-life [3]: > 24 h
EC90 (Hepatitis C virus [4]; Hepatitis C virus, Huh-7): 3.08 µM
half-life [5]: 15.7 h
half-life [6]: > 20 h
EC90 (Hepatitis C virus [7]; Hepatitis C virus, Huh-7): 0.92 µM
CC50 [8]: > 100 µM
half-life [9]: 4 h
CC50 [10]: > 30 µM
CC50 [11]: > 100 µM
CC50 [12]: 14 µM
CC50 [13]: > 100 µM

Compound: C[C@@]1(F)[C@@H]2O[P@@](=O)(Oc3ccccc3)OC[C@H]2O[C@H]1n1cnc2c(N3CCC3)nc(N)nc21
EC90 (Hepatitis C virus [2]; Hepatitis C virus, Huh-7): 7.7 µM

Compound: CCOc1nc(N)nc2c1ncn2[C@@H]1O[C@@H]2COP(=O)(Oc3ccccc3)O[C@H]2[C@@]1(C)F (stereo partly drawn)
EC90 (Hepatitis C virus [2]; Hepatitis C virus, Huh-7): 1.72 µM

Compound: CCOc1nc(N)nc2c1ncn2[C@@H]1O[C@@H]2CO[P@](=O)(OC(C)C)O[C@H]2[C@@]1(C)F (stereo in doubt; 24b)
EC90 (Hepatitis C virus [2]): 0.69 µM
EC90 (Hepatitis C virus [4]): 0.86 µM
Stability ([6]; simulated gi fluid): 18 h
EC90 (Hepatitis C virus [7]): 0.69 µM

Compound: CCOc1nc(N)nc2c1ncn2[C@@H]1O[C@@H]2CO[P@](=O)(OC(C)C)O[C@H]2[C@@]1(C)F (stereo in doubt; 24a)
CC50 [1]: > 100 µM
EC90 (Hepatitis C virus [2]; Hepatitis C virus, Huh-7): 1.37 µM
half-life [3]: > 24 h
AUC (Liver): 13234 ng·h/g
EC90 (Hepatitis C virus [4]; Hepatitis C virus, Huh-7): 1.61 µM
half-life [5]: > 24 h
half-life [6]: > 20 h
Drug uptake (Hepatocyte): 0.59 mM
EC90 (Hepatitis C virus [7]; Hepatitis C virus, Huh-7): 1.37 µM
AUC (Rattus norvegicus [15]): 41893 ng·h/g
CC50 [8]: > 100 µM
half-life [9]: > 20 h
CC50 [10]: > 100 µM
Drug uptake [16]: 0.41 mM
CC50 [11]: > 100 µM
CC50 [12]: > 100 µM
CC50 [13]: > 100 µM

Compound: CCOc1nc(N)nc2c1ncn2[C@@H]1O[C@@H]2COP(=O)(OC)O[C@H]2[C@@]1(C)F (stereo partly drawn)
CC50 [1]: 95 µM
EC90 (Hepatitis C virus [2]; Hepatitis C virus, Huh-7): 0.41 µM
half-life [3]: > 24 h
AUC (Liver): 8310 ng·h/g
EC90 (Hepatitis C virus [4]; Hepatitis C virus, Huh-7): 0.4 µM
half-life [5]: 8.88 h
half-life [6]: > 20 h
Drug uptake (Hepatocyte): 0.12 mM
EC90 (Hepatitis C virus [7]; Hepatitis C virus, Huh-7): 0.41 µM
AUC (Rattus norvegicus [15]): 4090 ng·h/g
CC50 [8]: > 100 µM
Cmax (Rattus norvegicus [17]): 613 ng/g
half-life [9]: > 20 h
CC50 [10]: > 30 µM
Drug uptake [16]: 0.08 mM
CC50 [11]: > 100 µM
CC50 [12]: > 100 µM
CC50 [13]: > 100 µM

Continued, in another order:

EC90 (Hepatitis C virus [2]; Hepatitis C virus, Huh-7): 5.05 µM
Compound: COP1(=O)OC[C@H]2O[C@@H](n3cnc4c(OCc5ccccc5)nc(N)nc43)[C@](C)(F)[C@@H]2O1 (stereo partly drawn)

EC90 (Hepatitis C virus [2]; Hepatitis C virus, Huh-7): 18.6 µM
Compound: CC(C)O[P@@]1(=O)OC[C@H]2O[C@@H](n3cnc4c(N5CCC5)nc(N)nc43)[C@](C)(F)[C@@H]2O1

EC90 (Hepatitis C virus [2]): 23.8 µM
Compound: CCCOc1nc(N)nc2c1ncn2[C@@H]1O[C@@H]2CO[P@](=O)(OCCC)O[C@H]2[C@@]1(C)F (stereo in doubt; 26a)

IC50 [14]: 5.94 µM
Compound: C[C@@]1(F)[C@H](O)[C@@H](COP(=O)(O)OP(=O)(O)OP(=O)(O)O)O[C@H]1n1cnc2c(=O)[nH]c(N)nc21 [PSI-352666]
CC50 [10]: > 100 µM

EC90 (Hepatitis C virus [2]): 5.27 µM
Compound: CCCOc1nc(N)nc2c1ncn2[C@@H]1O[C@@H]2CO[P@](=O)(OCCC)O[C@H]2[C@@]1(C)F (stereo in doubt; 26b)
CC50 [10]: > 11 µM

EC90 (Hepatitis C virus [2]; Hepatitis C virus, Huh-7): 3.9 µM
Compound: CC(C)C(=O)OC[C@H]1O[C@@H](n2ccc(N)nc2=O)[C@](C)(F)[C@@H]1OC(=O)C(C)C [MERICITABINE]
CC50 [10]: > 100 µM

EC90 (Hepatitis C virus [2]; Hepatitis C virus, Huh-7): 48.1 µM
Compound: CCCCNc1nc(N)nc2c1ncn2[C@@H]1O[C@@H]2COP(=O)(OCC)O[C@H]2[C@@]1(C)F (single isomer, unassigned)

EC90 (Hepatitis C virus [2]; Hepatitis C virus, Huh-7): 9.28 µM
Compound: CCCCNc1nc(N)nc2c1ncn2[C@@H]1O[C@@H]2COP(=O)(OC(C)C)O[C@H]2[C@@]1(C)F (single isomer, unassigned)

EC90 (Hepatitis C virus [2]; Hepatitis C virus, Huh-7): 1.56 µM
Compound: COP1(=O)OC[C@H]2O[C@@H](n3cnc4c(NC5CCC5)nc(N)nc43)[C@](C)(F)[C@@H]2O1 (stereo partly drawn)

EC90 (Hepatitis C virus [2]; Hepatitis C virus, Huh-7): 69 µM
Compound: C[C@@]1(F)[C@H](O)[C@@H](CO)O[C@H]1n1cnc2c(O)nc(N)nc21

EC90 (Hepatitis C virus [2]; Hepatitis C virus, Huh-7): 7.3 µM
Compound: C[C@@]1(F)[C@@H]2O[P@@](=O)(OC3CCC3)OC[C@H]2O[C@H]1n1cnc2c(N3CCC3)nc(N)nc21

EC90 (Hepatitis C virus [2]; Hepatitis C virus, Huh-7): 69.2 µM
Compound: CCO[P@@]1(=O)OC[C@H]2O[C@@H](n3cnc4c(N5CCC5)nc(N)nc43)[C@](C)(F)[C@@H]2O1

EC90 (Hepatitis C virus [2]; Hepatitis C virus, Huh-7): 7.2 µM
Compound: COP1(=O)OC[C@H]2O[C@@H](n3cnc4c(NC5CCCC5)nc(N)nc43)[C@](C)(F)[C@@H]2O1 (stereo partly drawn)
